According to patent publication US10538535B2, “Antitumoral compounds” (priority 2017, dated 2020):

Tests used:
Assay in all cases: cells
PSN1 cells = settings: Homo sapiens, PSN1, 72 h; for IC (TGI): read-out: TGI; for CC50: read-out: LC50
Description: (§1) The aim of this assay is to evaluate the in vitro cytostatic (ability to delay or arrest tumor cell growth) or cytotoxic (ability to kill tumor cells) activity of the samples being tested.
(§2) A colorimetric assay, using sulforhodamine B (SRB) reaction has been adapted to provide a quantitative measurement of cell growth and viability (following the technique described by Skehan et al. J. Natl. Cancer Inst. 1990, 82, 1107-1112). Another colorimetric assay based on 3-(4,5-Dimethylthiazol-2-yl)-2,5-diphenyltetrazolium bromide (MTT) reduction to a purple formazan has been also used to assess the antiproliferative activity (following the technique described by Mosmann et al. J. Immunol. Meth. 1983, 65, 55-63).
(§3) These forms of assays employ 96-well cell culture microplates following the standards of the American National Standards Institute and the Society for Laboratory Automation and Screening (ANSI SLAS 1-2004 (R2012) Oct. 12, 2011. All the cell lines used in this study were obtained from the American Type Culture Collection (ATCC) and derive from different types of human cancer.
(§4) A549, HT29, MDA-MB-231 and PSN1 cells were maintained in Dulbecco's Modified Eagle Medium (DMEM) while PC-3 and 22Rv1 cells were maintained in Roswell Park Memorial Institute Medium (RPMI). All cell lines were supplemented with 10% Fetal Bovine Serum (FBS), 2 mM L-glutamine, 100 U/mL penicillin, and 100 […] at 37° C., 5% CO2 and 98% humidity. For the experiments, cells were harvested from subconfluent cultures using trypsinization and resuspended in fresh medium before counting and plating.
(§5) A549, HT29, MDA-MB-231 and PSN1 cells were seeded in 96 well microtiter plates, at 5000 cells per well in aliquots of 150 μL, and allowed to attach to the plate surface for 18 hours (overnight) in drug free medium. After that, one control (untreated) plate of each cell line was fixed (as described below) and used for time zero reference value. Culture plates were then treated with test compounds (50 μL aliquots of 4× stock solutions in complete culture medium plus 4% DMSO) using ten 2/5 serial dilutions (concentrations ranging from 10 to 0.003 μg/mL) and triplicate cultures (1% final concentration in DMSO). After 72 hours treatment, the antitumor effect was measured by using the SRB methodology: Briefly, cells were washed twice with PBS, fixed for 15 min in 1% glutaraldehyde solution at room temperature, rinsed twice in PBS, and stained in 0.4% SRB solution for 30 min at room temperature. Cells were then rinsed several times with 1% acetic acid solution and air-dried at room temperature.
(§6) Effects on cell growth and survival were estimated by applying the NCI algorithm (Boyd M R and Paull K D. Drug Dev. Res. 1995, 34, 91-104). The values obtained in triplicate cultures were fitted by nonlinear regression to a four-parameters logistic curve by nonlinear regression analysis.

HT29 cells = settings: Homo sapiens, HT-29, 72 h; for IC (TGI): read-out: TGI; for CC50: read-out: LC50
Description: as §1, §2, §3, §4, §5, §6

MDA-MB-231 cells = settings: Homo sapiens, MDA-MB-231, 72 h; for CC50: read-out: LC50; for IC (TGI): read-out: TGI
Description: as §1, §2, §3, §4, §5, §6

A549 cells = settings: Homo sapiens, A549, 72 h; for IC (TGI): read-out: TGI; for CC50: read-out: LC50
Description: as §1, §2, §3, §4, §5, §6

| SMILES | GI50 (PSN1 cells; PSN1, 72 hours treatment, SRB) | IC (TGI) (PSN1 cells) | IC (TGI) (HT29 cells) | CC50 (MDA-MB-231 cells) | IC (TGI) (MDA-MB-231 cells) | GI50 (A549 cells) | IC (TGI) (A549 cells) | CC50 (PSN1 cells) | GI50 (HT29 cells) | CC50 (HT29 cells) | CC50 (A549 cells) | GI50 (MDA-MB-231 cells) | GI50 (PSN1 cells) |
| --- | --- | --- | --- | --- | --- | --- | --- | --- | --- | --- | --- | --- | --- |
| COc1ccc2[nH]c3c(c2c1)C[C@@H](CO)N[C@]31CS[C@@H]2c3c(OC(C)=O)c(C)c4c(c3[C@H](COC1=O)N1[C@@H]2[C@H]2c3c(cc(C)c(OC)c3O)C[C@@H]([C@@H]1C#N)N2C)OCO4 [Compound 18-S] | 0.959 nM | 1.34 nM | 1.34 nM | 1.58 nM | 1.34 nM | 1.7 nM | 0.00303 µM | – | – | – | – | – | – |
| C=CCOC(=O)NC[C@H]1Cc2c([nH]c3ccc(OC)cc23)[C@@]2(CS[C@@H]3c4c(OC(C)=O)c(C)c5c(c4[C@H](COC2=O)N2[C@@H]3[C@H]3c4c(cc(C)c(OC)c4O)C[C@@H]([C@@H]2C#N)N3C)OCO5)N1 [Compound 25-R] | – | 2.32 nM | 2.76 nM | 8.38 nM | 2.54 nM | 1.32 nM | 0.00243 µM | 6.73 nM | 1.54 nM | > 110 nM | 9.92 nM | – | – |
| C=CCOC(=O)NC[C@@H]1Cc2c([nH]c3ccc(OC)cc23)[C@@]2(CS[C@@H]3c4c(OC(C)=O)c(C)c5c(c4[C@H](COC2=O)N2[C@@H]3[C@H]3c4c(cc(C)c(OC)c4O)C[C@@H]([C@@H]2C#N)N3C)OCO5)N1 [Compound 25-S] | 6.84 nM | 9.26 nM | 7.72 nM | 15.4 nM | 9.04 nM | 7.17 nM | 0.00761 µM | 14.3 nM | 7.17 nM | > 110 nM | > 110 nM | 5.84 nM | – |
| COc1ccc2[nH]c3c(c2c1)C[C@H](CN)N[C@]31CS[C@@H]2c3c(OC(C)=O)c(C)c4c(c3[C@H](COC1=O)N1[C@@H]2[C@H]2c3c(cc(C)c(OC)c3O)C[C@@H]([C@@H]1C#N)N2C)OCO4 [Compound 26-R] | 0.972 nM | 1.7 nM | 1.58 nM | 1.46 nM | 1.22 nM | 1.94 nM | 0.0034 µM | 3.52 nM | 0.729 nM | > 122 nM | > 122 nM | 1.17 nM | – |
| COc1ccc2[nH]c3c(c2c1)C[C@@H](CN)N[C@]31CS[C@@H]2c3c(OC(C)=O)c(C)c4c(c3[C@H](COC1=O)N1[C@@H]2[C@H]2c3c(cc(C)c(OC)c3O)C[C@@H]([C@@H]1C#N)N2C)OCO4 [Compound 26-S] | 3.04 nM | 3.28 nM | 3.16 nM | 3.89 nM | 1.94 nM | 11.2 nM | 0.0219 µM | 3.52 nM | 2.79 nM | > 122 nM | > 122 nM | 1.34 nM | – |
| COc1ccc2[nH]c3c(c2c1)C[C@H](CN)N[C@]31CS[C@@H]2c3c(OC(C)=O)c(C)c4c(c3[C@H](COC1=O)N1[C@@H]2[C@H]2c3c(cc(C)c(OC)c3O)C[C@@H]([C@@H]1O)N2C)OCO4 [Compound 27-R] | 0.639 nM | 1.17 nM | 0.553 nM | 0.86 nM | 0.541 nM | 2.09 nM | 0.00393 µM | 2.46 nM | 0.504 nM | > 123 nM | 10.1 nM | 0.307 nM | – |
| COc1ccc2[nH]c3c(c2c1)C[C@@H](CN)N[C@]31CS[C@@H]2c3c(OC(C)=O)c(C)c4c(c3[C@H](COC1=O)N1[C@@H]2[C@H]2c3c(cc(C)c(OC)c3O)C[C@@H]([C@@H]1O)N2C)OCO4 [Compound 27-S] | 1.97 nM | 2.83 nM | 1.35 nM | 1.35 nM | – | 6.02 nM | 0.0112 µM | 4.55 nM | – | > 123 nM | > 123 nM | 1.19 nM | – |
| COc1ccc2[nH]c3c(c2c1)C[C@H](C(=O)O)N[C@]31CS[C@@H]2c3c(OC(C)=O)c(C)c4c(c3[C@H](COC1=O)N1[C@@H]2[C@H]2c3c(cc(C)c(OC)c3O)C[C@@H]([C@@H]1C#N)N2C)OCO4 [Compound 28-R] | – | 35.8 nM | 33.4 nM | 91.9 nM | 32.2 nM | 167 nM | 0.358 µM | 66.8 nM | 31 nM | > 1190 nM | > 1190 nM | 19.1 nM | 21.5 nM |
| COc1ccc2[nH]c3c(c2c1)C[C@@H](C(=O)O)N[C@]31CS[C@@H]2c3c(OC(C)=O)c(C)c4c(c3[C@H](COC1=O)N1[C@@H]2[C@H]2c3c(cc(C)c(OC)c3O)C[C@@H]([C@@H]1C#N)N2C)OCO4 [Compound 28-S] | – | 394 nM | 346 nM | 394 nM | 251 nM | 489 nM | > 1.19 µM | 692 nM | 251 nM | 633 nM | > 1190 nM | 167 nM | 251 nM |
| COc1ccc2[nH]c3c(c2c1)C[C@H](C(=O)O)N[C@]31CS[C@@H]2c3c(OC(C)=O)c(C)c4c(c3[C@H](COC1=O)N1[C@@H]2[C@H]2c3c(cc(C)c(OC)c3O)C[C@@H]([C@@H]1O)N2C)OCO4 [Compound 29-R] | – | 31.4 nM | 32.6 nM | 157 nM | 27.7 nM | 90.5 nM | 0.193 µM | 35 nM | 30.2 nM | > 1210 nM | > 1210 nM | 16.9 nM | 30.2 nM |
| COc1ccc2[nH]c3c(c2c1)C[C@@H](C(=O)O)N[C@]31CS[C@@H]2c3c(OC(C)=O)c(C)c4c(c3[C@H](COC1=O)N1[C@@H]2[C@H]2c3c(cc(C)c(OC)c3O)C[C@@H]([C@@H]1O)N2C)OCO4 [Compound 29-S] | – | 507 nM | 531 nM | 688 nM | 374 nM | 615 nM | > 1.21 µM | 688 nM | 362 nM | 832 nM | > 1210 nM | 217 nM | 386 nM |
| COc1c(C)cc2c(c1O)[C@@H]1[C@@H]3[C@@H]4SC[C@]5(NCCc6c5oc5ccccc65)C(=O)OC[C@@H](c5c6c(c(C)c(OC(C)=O)c54)OCO6)N3[C@@H](C#N)[C@H](C2)N1C [Compound 31] | – | 15.7 nM | 15.7 nM | 35.3 nM | 17 nM | 19.6 nM | 0.0209 µM | 43.1 nM | 10.5 nM | > 131 nM | 23.5 nM | 8.89 nM | 6.8 nM |
| COc1ccc2oc3c(c2c1)CCN[C@]31CS[C@@H]2c3c(OC(C)=O)c(C)c4c(c3[C@H](COC1=O)N1[C@@H]2[C@H]2c3c(cc(C)c(OC)c3O)C[C@@H]([C@@H]1C#N)N2C)OCO4 [Compound 34] | – | 59.1 nM | 85.5 nM | 112 nM | 76.7 nM | 59.1 nM | 0.0805 µM | > 126 nM | 54.1 nM | 125 nM | > 126 nM | 45.3 nM | 54.1 nM |
| COc1c(C)cc2c(c1O)[C@@H]1[C@@H]3[C@@H]4SC[C@]5(N[C@@H](CO)Cc6c5oc5ccccc65)C(=O)OC[C@@H](c5c6c(c(C)c(OC(C)=O)c54)OCO6)N3[C@@H](C#N)[C@H](C2)N1C [Compound 38-R] | 0.654 nM | 0.994 nM | 0.591 nM | 2.01 nM | 0.843 nM | 0.654 nM | 0.00104 µM | 1.76 nM | 0.541 nM | > 126 nM | > 126 nM | 0.453 nM | – |
